Measured values taken from the NIST ThermoML archive (doi:10.1016/j.tca.2009.06.004).

Test: excess molar enthalpy (molar enthalpy of mixing); xn = mol fraction of the nth substance listed
Conditions: 298.15 K, 101 kPa, Liquid, Calvet calorimetry

OCCO [1,2-ethanediol] + O
Conditions	excess molar enthalpy [kcal/mol]
x2 = 0.1014	-0.0416
x2 = 0.1994	-0.0805
x2 = 0.2091	-0.0829
x2 = 0.3051	-0.115
x2 = 0.3674	-0.134
x2 = 0.3995	-0.141
x2 = 0.4807	-0.153
x2 = 0.5455	-0.159
x2 = 0.6144	-0.167
x2 = 0.669	-0.171
x2 = 0.7949	-0.163
x2 = 0.8656	-0.136
x2 = 0.915	-0.101

OCCOCCO [diethylene glycol] + CCO
Conditions	excess molar enthalpy [kcal/mol]
x2 = 0.1048	0.0182
x2 = 0.1991	0.0308
x2 = 0.2967	0.0461
x2 = 0.4009	0.0595
x2 = 0.4963	0.0626
x2 = 0.5879	0.0669
x2 = 0.7041	0.0602
x2 = 0.7958	0.0488
x2 = 0.9006	0.0289

OCCOCCO [diethylene glycol] + O
Conditions	excess molar enthalpy [kcal/mol]
x2 = 0.1026	-0.0657
x2 = 0.2012	-0.122
x2 = 0.2094	-0.125
x2 = 0.3067	-0.177
x2 = 0.4068	-0.223
x2 = 0.4937	-0.248
x2 = 0.5018	-0.255
x2 = 0.6003	-0.285
x2 = 0.6996	-0.298
x2 = 0.7998	-0.28
x2 = 0.8999	-0.205
x2 = 0.9002	-0.207
x2 = 0.9498	-0.129

OCC(O)CO [glycerol] + O
Conditions	excess molar enthalpy [kcal/mol]
x2 = 0.1028	-0.0363
x2 = 0.2192	-0.0698
x2 = 0.3038	-0.0925
x2 = 0.3964	-0.113
x2 = 0.5022	-0.131
x2 = 0.5956	-0.143
x2 = 0.6991	-0.146
x2 = 0.8005	-0.134
x2 = 0.8995	-0.087

OCCOCCOCCO [triethylene glycol] + CCO
Conditions	excess molar enthalpy [kcal/mol]
x2 = 0.104	0.028
x2 = 0.2042	0.0586
x2 = 0.301	0.0837
x2 = 0.399	0.104
x2 = 0.5002	0.118
x2 = 0.599	0.121
x2 = 0.6993	0.112
x2 = 0.7995	0.0963
x2 = 0.8992	0.0621

OCCOCCOCCO [triethylene glycol] + O
Conditions	excess molar enthalpy [kcal/mol]
x2 = 0.1291	-0.105
x2 = 0.2167	-0.188
x2 = 0.3145	-0.258
x2 = 0.4016	-0.32
x2 = 0.5006	-0.384
x2 = 0.6006	-0.431
x2 = 0.6999	-0.448
x2 = 0.7985	-0.422
x2 = 0.9013	-0.312
